What all share (assay type): cell-based
For one experiment, the system named is MOLM-13. Nature of the experiment: Proliferation inhibition (CellTiter-Glo) in MOLM-13 cells. The following applies: Homo sapiens, 96 h, MOLM-13 AML cells, heterozygous FLT3-ITD, IC50 (4 days). From the text: (§1) The Proliferation Inhibitory Effect was Investigated in Human AML Cell Lines MOLM-13 (AddexBio: C0003003) [REF: Pubmed: 9305600] and MV-4-11 (ATCC: CRL-9591) [REF PMID: 3496132], and CML cell line […] (ATCC: CRL-3343) [REF PMID: 163658]. Molm-13 is heterozygous for FLT3-ITD mutation, while MV4-11 is homozygous for FLT3-ITD [PMID: 12529668]. […] Cells were maintained in RPMI-1640 medium (ThermoFisher catalog no. 61870036) supplemented with 10% of Heat Inactivated FBS (ThermoFisher catalog no.A31605) and 1% Pen-Strep (Thermofisher catalog no. 10378016) and cultured at 37° C. in a humidified incubator with 5% CO2. Cell lines were […], and the cells were maintained in a range 70%-80% confluency.
(§2) ATP is present in all metabolically active cells and is considered as a marker for cell viability and proliferation. Metabolic cell activity was determined using the CellTiter-Glo kit (Promega catalog no. G7572), an ATP monitoring system based on the production of luminescence by the reaction of ATP with added UltraGlo® recombinant luciferase (Kawano et al., 2016, PLOS One, 8; 11(7):e0158888), according to the supplier's experimental recommendations. The assay was based on a 96 well plate format.
(§3) Test compounds were dissolved at 10 mM in DMSO (Sigma catalog no. D8418; purity 299.9%) and stored at −20° C. Eight concentrations of test compound were assessed in duplicate in an individual test occasion in parallel in the selected cell lines. Gilteratinib and FF-10101 were used as reference compounds and tested in duplicate at eight concentrations. 100% of proliferation is represented by the untreated cells (0.2% DMSO).
(§4) On the day of the experiment (TO), cells were quantified with the cell viability analyser NucleoCounter (Chemometec NC-200) and diluted with fresh medium to obtain the cell density of about 10,000 cells per 200 μL medium. 200 μL of cell suspension were added into wells in the 96 well plate.
(§5) After 2 hours from seeding cells, compounds were added using a D300e compound dispenser (Life Sciences Tecan D300) at desired concentrations with shaking between each compound dispensed. Cell plates containing 200 μL/well suspension were incubated at 37° C. in a humidified incubator with […].
(§6) […] Contents were mixed for 5 min on an orbital shaker to induce cell lysis, and then incubated at room temperature for an additional 10 min in the dark to stabilize the luminescent signal. Luminescence was read by using a GloMax GM300 plate reader (Promega) using the luminescence for 96 well plate standard protocol.
(§7) Results were analysed by GraphPad (Prism) and IC50 values were calculated by non-linear regression using four parameter-logistic equation.
Background: ATP-based viability assays read luminescence as a measure of living cells.

In the next experiment the test system is MV-4-11. The experiment in a line: Proliferation inhibition (CellTiter-Glo) in MV-4-11 cells. The following applies: Homo sapiens, MV4-11, 96 h, MV-4-11 AML cells, homozygous FLT3-ITD, IC50 (4 days).
From the text: as §1, §2, §3, §4, §5, §6, §7

In a further experiment the test system is K-562. Nature of the experiment: Proliferation inhibition (CellTiter-Glo) in K-562 cells. The following applies: Homo sapiens, K562, 96 h, K-562 CML cells, no FLT3 mutations, IC50 (4 days).
From the text: as §1, §2, §3, §4, §5, §6, §7

Where only a bound is given, the exact number is not on record here.

This note sets out measurements from patent US20250136558A1, “PYRAZINE COMPOUNDS AS IRREVERSIBLE INHIBITORS OF FLT3” (BIOMEA FUSION, INC., priority 2021, published 2025).

As usually defined, the IC50 is the concentration needed to halve the response being measured.

In the case of `C=CS(=O)(=O)NCCCNc1cc(Nc2nc(NC3CCOCC3)c(CC)nc2C(N)=O)ccn1` [Compound 27, 6-Ethyl-5-((tetrahydro-2H-pyran-4-yl)amino)-3-((2-((3-(vinylsulfonamido)propyl)amino)pyridin-4-yl)amino)pyrazine-2-carboxamide], the values for the IC50 in the experiment with MOLM-13, with MV-4-11 and in the experiment with K-562 were 0.01 to 0.1 µM, 0.01 to 0.1 µM and greater than 0.5 µM, respectively.
In the case of `C=CC(=O)NCCCC(=O)NCCc1cc(Nc2nc(NC3CCOCC3)c(CC)nc2C(N)=O)cc(OC)c1` [Compound 28, 3-((3-(2-(4-Acrylamidobutanamido)ethyl)-5-methoxyphenyl)amino)-6-ethyl-5-((tetrahydro-2H-pyran-4-yl)amino)pyrazine-2-carboxamide], the IC50 is 0.1 to 0.5 µM with MOLM-13, 0.1 to 0.5 µM in the experiment on MV-4-11 and greater than 0.5 µM with K-562.
`C=CC(=O)NCCC(=O)NCCc1cc(Nc2nc(NC3CCOCC3)c(CC)nc2C(N)=O)cc(OC)c1` [Compound 29, 3-((3-(2-(3-Acrylamidopropanamido)ethyl)-5-methoxyphenyl)amino)-6-ethyl-5-((tetrahydro-2H-pyran-4-yl)amino)pyrazine-2-carboxamide]: the IC50 with MOLM-13 is 0.01 to 0.1 µM; in the experiment on MV-4-11, 0.01 to 0.1 µM; in the experiment with K-562, greater than 0.5 µM.
On to `C=CC(=O)N(C)CCCC(=O)NCCc1cc(Nc2nc(NC3CCOCC3)c(CC)nc2C(N)=O)cc(OC)c1` [Compound 30, 6-Ethyl-3-((3-methoxy-5-(2-(4-(N-methylacrylamido)butanamido)ethyl)phenyl)amino)-5-((tetrahydro-2H-pyran-4-yl)amino)pyrazine-2-carboxamide], for which the IC50 was 0.1 to 0.5 µM in the experiment on MOLM-13, 0.001 to 0.01 µM with MV-4-11 and greater than 0.5 µM in the experiment with K-562.
For the compound `C#CC(=O)NCCC(=O)NCCc1cc(Nc2nc(NC3CCOCC3)c(CC)nc2C(N)=O)cc(OC)c1` [Compound 31, 6-Ethyl-3-((3-methoxy-5-(2-(3-propiolamidopropanamido)ethyl)phenyl)amino)-5-((tetrahydro-2H-pyran-4-yl)amino)pyrazine-2-carboxamide], the values for the IC50 in the experiment on MOLM-13, in the experiment with MV-4-11 and in the experiment on K-562 were 0.001 to 0.01 µM, less than 0.001 µM and greater than 0.5 µM, respectively.
In the same order, the values of `C#CC(=O)N(C)CCCC(=O)NCCc1cc(Nc2nc(NC3CCOCC3)c(CC)nc2C(N)=O)cc(OC)c1` [Compound 32, 6-ethyl-3-[3-methoxy-5-[2-[4-[methyl(prop-2-ynoyl)amino]butanoylamino]ethyl]anilino]-5-(tetrahydropyran-4-ylamino)pyrazine-2-carboxamide] are 0.001 to 0.01 µM, less than 0.001 µM and greater than 0.5 µM.
In the case of `CC#CC(=O)N(C)CCCC(=O)NCCc1cc(Nc2nc(NC3CCOCC3)c(CC)nc2C(N)=O)cc(OC)c1` [Compound 33, 3-[3-[2-[4-[but-2-ynoyl(methyl)amino]butanoylamino]ethyl]-5-methoxy-anilino]-6-ethyl-5-(tetrahydropyran-4-ylamino)pyrazine-2-carboxamide], the half-maximal inhibitory concentration (IC50) in the experiment with MOLM-13 was 0.01 to 0.1 µM; with MV-4-11 it was 0.01 to 0.1 µM; in the experiment with K-562 it was greater than 0.5 µM.
For `C=CC(=O)N(C)CCC(=O)NCCc1cc(Nc2nc(NC3CCOCC3)c(CC)nc2C(N)=O)cc(OC)c1` [Compound 34, 6-Ethyl-3-((3-methoxy-5-(2-(3-(N-methylacrylamido)propanamido)ethyl)phenyl)amino)-5-((tetrahydro-2H-pyran-4-yl)amino)pyrazine-2-carboxamide], the IC50 with MOLM-13 was 0.01 to 0.1 µM; in the experiment with MV-4-11, 0.001 to 0.01 µM; with K-562, greater than 0.5 µM.
In the same order, the values of `CC#CC(=O)N(C)CCC(=O)NCCc1cc(Nc2nc(NC3CCOCC3)c(CC)nc2C(N)=O)cc(OC)c1` [Compound 35, 3-[3-[2-[3-[but-2-ynoyl(methyl)amino]propanoylamino]ethyl]-5-methoxy-anilino]-6-ethyl-5-(tetrahydropyran-4-ylamino)pyrazine-2-carboxamide] are 0.01 to 0.1 µM, 0.01 to 0.1 µM and greater than 0.5 µM.
Turning to `C=CC(=O)N(C)[C@@H](C)C(=O)NCCCOc1cccc(Nc2nc(NC3CCOCC3)c(CC)nc2C(N)=O)c1` [Compound 36, 6-ethyl-3-[3-[3-[[(2S)-2-[methyl(prop-2-enoyl)amino]propanoyl]amino]propoxy]anilino]-5-(tetrahydropyran-4-ylamino)pyrazine-2-carboxamide], the half-inhibitory concentration (IC50) in the experiment on MOLM-13 is 0.001 to 0.01 µM; in the experiment with MV-4-11, less than 0.001 µM; in the experiment with K-562, greater than 0.5 µM.
In the same order, the values of `CCc1nc(C(N)=O)c(Nc2cccc(OCCCNC(=O)[C@H](C)N(C)C(=O)/C=C/CN(C)C)c2)nc1NC1CCOCC1` [Compound 37, 3-[3-[3-[[(2S)-2-[[(E)-4-(dimethylamino)but-2-enoyl]-methyl-amino]propanoyl]amino]propoxy]anilino]-6-ethyl-5-(tetrahydropyran-4-ylamino)pyrazine-2-carboxamide] are less than 0.001 µM, less than 0.001 µM and greater than 0.5 µM.
In the same order, the values of `C=CC(=O)N(C)[C@@H](C)C(=O)NCCOc1cccc(Nc2nc(NC3CCOCC3)c(CC)nc2C(N)=O)c1` [Compound 38, 6-ethyl-3-[3-[2-[[(2S)-2-[methyl(prop-2-enoyl)amino]propanoyl]amino]ethoxy]anilino]-5-(tetrahydropyran-4-ylamino)pyrazine-2-carboxamide] are 0.01 to 0.1 µM, 0.001 to 0.01 µM and greater than 0.5 µM.
For `CCc1nc(C(N)=O)c(Nc2cccc(OCCNC(=O)[C@H](C)N(C)C(=O)/C=C/CN(C)C)c2)nc1NC1CCOCC1` [Compound 39, 3-[3-[2-[[(2S)-2-[[(E)-4-(dimethylamino)but-2-enoyl]-methyl-amino]propanoyl]amino]ethoxy]anilino]-6-ethyl-5-(tetrahydropyran-4-ylamino)pyrazine-2-carboxamide] the same measures were 0.001 to 0.01 µM, less than 0.001 µM and greater than 0.5 µM.
Turning to `C=CC(=O)N(C)[C@@H](C)C(=O)NCCNc1cc(Nc2nc(NC3CCOCC3)c(CC)nc2C(N)=O)ccn1` [Compound 40, 6-ethyl-3-[[2-[2-[[(2S)-2-[methyl(prop-2-enoyl)amino]propanoyl]amino]ethylamino]-4-pyridyl]amino]-5-(tetrahydropyran-4-ylamino)pyrazine-2-carboxamide], the values for the IC50 in the experiment with MOLM-13, in the experiment on MV-4-11 and with K-562 were 0.001 to 0.01 µM, 0.001 to 0.01 µM and greater than 0.5 µM, respectively.
Consider `C=CS(=O)(=O)N(C)[C@@H](C)C(=O)NCCNc1cc(Nc2nc(NC3CCOCC3)c(CC)nc2C(N)=O)ccn1` [Compound 41, 6-ethyl-3-[[2-[2-[[(2S)-2-[methyl(vinylsulfonyl)amino]propanoyl]amino]ethylamino]-4-pyridyl]amino]-5-(tetrahydropyran-4-ylamino)pyrazine-2-carboxamide], for which the figures for the half-inhibitory concentration (IC50) in the experiment with MOLM-13, in the experiment on MV-4-11 and in the experiment on K-562 were 0.01 to 0.1 µM, 0.01 to 0.1 µM and greater than 0.5 µM, respectively.
For `CC#CC(=O)NCCC(=O)NCCc1cc(Nc2nc(NC3CCOCC3)c(CC)nc2C(N)=O)cc(OC)c1` [Compound 101, 3-[3-[2-[3-(but-2-ynoylamino)propanoylamino]ethyl]-5-methoxy-anilino]-6-ethyl-5-(tetrahydropyran-4-ylamino)pyrazine-2-carboxamide], the IC50 in the experiment with MOLM-13 is 0.01 to 0.1 µM; with MV-4-11, 0.01 to 0.1 µM; in the experiment with K-562, greater than 0.5 µM.
On to `C=CC(=O)N1CCC(C(=O)Nc2cccc(Nc3nc(NC4CCOCC4)c(CC)nc3C(N)=O)c2)CC1` [Compound 102, 6-ethyl-3-[3-[(1-prop-2-enoylpiperidine-4-carbonyl)amino]anilino]-5-(tetrahydropyran-4-ylamino)pyrazine-2-carboxamide], for which the IC50 was 0.01 to 0.1 µM in the experiment with MOLM-13, 0.01 to 0.1 µM in the experiment with MV-4-11 and greater than 0.5 µM in the experiment on K-562.
